Experimental data as given in patent US10836795B2, “Dual functional novel peptide having cell permeability and bone tissue regeneration ability, and use thereof” (SEOUL NATIONAL UNIVERSITY R&DB FOUNDATION, priority 2016, dated 2020).
Where a SMILES comes first, the peptide text is derived from it.

Assays:
dental pulp stem cells [1] = assay: MTT assay, in-vitro cytotoxicity of synthetic peptides; type: cell-based; details: 50-2000 μM, 24, 48 and 72 hours
Description: A cell viability test was performed to evaluate the cytotoxicity of the peptides set forth in SEQ ID NOS: 1 to 6 synthesized in Example 2 above. For this purpose, dental pulp stem cells were seeded at a density of 9×10^3 cells per well into each well of a 96-well polystyrene plate in a Dulbecco's Modified Eagle's Medium (Gibco, USA) supplemented with 10% FBS (fetal bovine serum) and a 1% antibiotic-antimycotic solution (Thermo Fisher Scientific, USA), and then cultured for 24 hours. Each well was treated with various concentrations (50 μM, 100 μM, 200 μM, 400 μM, 500 μM, 800 μM, 1000 μM and 2000 μM) of the peptides set forth in SEQ ID NOS: 1 to 6. After 24 hours (1 day), 48 hours (2 days) and 72 hours (3 days), an MTT assay was performed to identify the cytotoxicity of the peptides. For the MTT assay, the medium was removed 24 hours, 48 hours, and 72 hours after treatment with peptide and each well was then treated with a mixture of 180 μl of a DMEM medium and 20 μl of a MTT solution, followed by further culturing for 1 hour. One hour later, the mixed solution was removed, each well was treated with 200 μl of dimethyl sulfoxide (DMSO) and the mixed solution was then transferred into a new 96-well plate and the cytotoxicity thereof was measured. All values were expressed as mean±standard deviation (SD) for triplicate experiments and the measured values are shown in FIG. 3.

dental pulp stem cells [2] = assay: Cell permeability of FITC-labeled peptides by confocal microscopy; type: cell-based; details: for fluorescence expression at highest concentration: 1000 uM; for cell permeation ability / efficiency: 50-1000 μM
Description: In order to identify the cell permeability of the peptides set forth in SEQ ID NOS: 1 to 6 synthesized in Example 2, fluorescein isothiocyanate (FITC) was attached to the N-terminus of each peptide. Dental pulp stem cells were seeded at a density of 3×10^4 cells into a 4-well chamber and cultured in DMEM medium for 24 hours for cell stabilization. 24 hours later, the cells were treated with the FITC-labeled peptide at various concentrations (50 μM, 100 μM, 200 μM, 500 μM, 1000 μM) for 30 minutes. The cells were treated with 100 ng/ml of copine 7 protein for 30 minutes in order to compare the cell permeability thereof with the peptide. Then, in order to compare the intracellular permeation behaviors of these peptides or the protein, each well was treated with 4% paraformaldehyde, fixed at room temperature for 10 minutes, treated with 0.5% Triton-X 100, and cultured at room temperature for 15 minutes. Then, the cells were blocked with a buffer solution (PBS) containing 3% bovine serum albumin (BSA) for 30 minutes. In the case of copine 7 protein, a CPNE7 primary antibody was diluted at a ratio of 1:100 in a buffer solution (PBS) containing 1% bovine serum albumin and reacted at 4° C. for 16 hours. A fluorescein isothiocyanate (FITC)-conjugated secondary antibody was diluted at a ratio of 1:200 and reacted at room temperature for 1 hour. Finally, the nuclei-staining dye (Hoechst 33342, blue) was treated at room temperature for 10 minutes and washed with a buffer solution (PBS), and the fluorescence intensity thereof was measured using a confocal scanning microscope (IX 70, Olympus Co, Tokyo, Japan) to determine the degree of expression. All values were expressed as mean±SD of the fluorescence intensities measured in three different areas, and were compared with the control group (no treatment, NT) (*P<0.05).

[3] = test system: skull of a New Zealand white rabbit; assay: Bone regeneration ability of a peptide-containing bone graft material in a rabbit skull defect; type: in vivo; details: 3 weeks after graft
Description: 20 mg and 40 mg of the peptide shown in SEQ ID NO: 4 were dissolved in 100 μL of purified water, and the solution was added to 0.1 g of a bone graft material, allowed to stand at 4° C. for 24 hours and lyophilized. The copine 7 protein was used as a control group in the same manner as above and was incorporated in amounts of 100 μg and 200 μg in 0.1 g of a bone graft material. A defect part with a diameter of 8 mm was formed in the skull of a New Zealand white rabbit (cuniculus) and implanted with 0.1 g of a bone graft material in each defect part. The periosteum and skin were double-sutured. The animal was sacrificed 3 weeks after graft, and the specimen was fixed in a formalin solution and embedded in tissues to obtain a specimen with a thickness of 20 um. The prepared specimen was stained with basic fuchsin and toluidine blue to prepare a non-decalcified sample. The sample was imaged with an optical microscope and analyzed histologically. All values were expressed as mean±SD (SD) of areas measured in three different samples and compared with copine 7 protein (*P<0.05).

[4] = test system: osteocalcin in dental pulp stem cells (DPSCs); assay: Bone differentiation ability: osteocalcin expression by immunofluorescence; type: cell-based
Description: In order to identify the bone differentiation ability of the peptide set forth in SEQ ID NO: 4, which was determined to have the best cell penetration function in Example 4, and the copine 7 protein, expression difference of osteocalcin in dental pulp stem cells (DPSCs) was evaluated.
For this purpose, 1×10^5 DPSCs were suspended in 50 μl of a medium (Dulbecco's Modified Eagle's Medium, Gibco, USA) supplemented with 10% FBS (fetal bovine serum) and a 1% antibiotic-antimycotic solution (Thermo Fisher Scientific, USA) in a 24-well plate. The cells were cultured for 24 hours and then treated with the peptide set forth in SEQ ID NO: 4 at concentrations of 200 μM and 500 μM and the copine 7 protein at a concentration of 100 ng/ml, respectively, while replacing the medium with Differentiation basal medium-Osteogenic (Lonza, USA) supplemented with a supplement (hMSC Osteogenic SingleQuots, Lonza, USA) for 18 days. […] Finally, the cells were treated with the nuclei-staining dye (Hoechst 33342, blue) at room temperature for 10 minutes and washed with buffer (PBS), and the expression level of osteocalcin was determined with a confocal scanning microscope (IX 70, Olympus Co, Tokyo, Japan). All values were expressed as mean±SD of fluorescence intensity measured in three different areas and were compared with the control group (no treatment, NT) (*P<0.05).

[5] = FITC-labeled peptide, 30 minutes, FIG. 4

Row | Compound | cytotoxicity (MTT assay) (dental pulp stem cells [1]) | fluorescence expression at highest concentration (dental pulp stem cells [2]; [5]) | cell permeation ability / efficiency (dental pulp stem cells [2]; [5]) | also measured
1 | CC(C)C[C@H](NC(=O)[C@@H](NC(=O)[C@@H](NC(=O)[C@@H](NC(=O)CNC(=O)[C@H](CO)NC(=O)[C@H](CC(N)=O)NC(=O)[C@H](CCCCN)NC(=O)[C@H](Cc1ccc(O)cc1)NC(=O)[C@@H](N)CO)C(C)C)C(C)C)C(C)C)C(N)=O [SEQ ID NO: 5, SYKNSGVVVL] (H-SYKNSGVVVL-NH2) | intracellularly toxic |  |  | 
2 | CC(C)C[C@H](NC(=O)[C@@H](NC(=O)[C@@H](NC(=O)[C@@H](NC(=O)CNC(=O)[C@H](CO)NC(=O)[C@H](CC(N)=O)NC(=O)[C@H](CCCCN)NC(=O)[C@H](Cc1ccc(O)cc1)NC(=O)[C@H](CO)NC(=O)[C@H](CCCNC(=N)N)NC(=O)[C@H](CCCNC(=N)N)NC(=O)[C@H](CCCCN)NC(=O)[C@H](CCC(N)=O)NC(=O)[C@H](CCCCN)NC(=O)[C@H](Cc1ccc(O)cc1)NC(=O)[C@H](CCCCN)NC(=O)[C@@H]1CCCN1C(=O)[C@H](CC(N)=O)NC(=O)[C@@H](N)C(C)C)C(C)C)C(C)C)C(C)C)C(N)=O [SEQ ID NO: 6] (H-VNPKYKQKRRSYKNSGVVVL-NH2) | intracellularly toxic |  |  | 
3 | FEEGQAQWDC (Dual functional candidate peptide for cell penetration and bone tissue regeneration) [SEQ ID NO: 2, peptide from copine 7 protein, position 331-340] |  | weak fluorescence |  | 
4 | FEEGQAQWDCVNPKYKQKRR (Dual functional candidate peptide for cell penetration and bone tissue regeneration) [SEQ ID NO: 3, peptide from copine 7 protein, position 331-350] |  |  | relatively excellent cell permeation efficiency | 
5 | STTFEEMQKA (Dual functional candidate peptide for cell penetration and bone tissue regeneration) [SEQ ID NO: 1, peptide from copine 7 protein, position 321-330] |  | no fluorescence expression | no cell permeation ability | 
6 | VNPKYKQKRR (Dual functional peptide for cell penetration and bone tissue regeneration) [SEQ ID NO: 4, peptide from copine 7 protein, position 341-350] |  |  | best cell permeation efficiency | effect of regenerating new bone at the skull defect part ([3]; bone graft material with 20 mg or 40 mg peptide versus 100 μg or 200 μg copine 7 protein, FIG. 7A): excellent effect of regenerating new bone; bone regeneration area (histomorphometric analysis) ([3]; versus copine 7 protein, FIG. 7B): significantly wider bone regeneration area than the copine 7 protein; expression degree of osteocalcin as fluorescence intensity ([4]; 200 μM and 500 μM peptide versus 100 ng/ml group, 18 days, FIG. 6): relatively stronger fluorescence intensity; bone differentiation ability compared with copine 7 protein ([4]; DPSCs, 18 days in osteogenic medium): superior to the copine 7 protein; fluorescence at 100 μM (dental pulp stem cells [2]; FITC-labeled peptide, 100 μM, 30 minutes, FIG. 4): had fluorescence; cell permeability compared with copine 7 protein (confocal microscope) (dental pulp stem cells [2]; versus 100 ng/ml copine 7 protein, 30 minutes, FIG. 5A): better cell permeability than the copine 7 protein; quantified fluorescence intensity compared with copine 7 protein (dental pulp stem cells [2]; versus 100 ng/ml copine 7 protein, FIG. 5B): strong fluorescence intensity compared to the copine 7 protein
